This experiment has as its target T1, GLP-1R (Homo sapiens, UniProt P43220).
T1 construct: host or cells: GLP-1R CRE-bla CHO-K1 cells
Nature of the experiment: EC20 GLP-1(9-36) PAM cAMP assay: dose response of compound in the presence of fixed concentration of GLP-1(9-36). Type of experiment: cell-based. The conditions noted are these: GLP-1R CRE-bla CHO-K1 cells, compound dose response with fixed concentration of GLP-1(9-36), read-out: EC20 GLP-1(9-36) PAM EC50. The method in brief:
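Positive allosteric modulation read as cAMP accumulation: compound titrations (12 points) combined with an EC20 level of GLP-1(9-36) on CHO-K1 GLP-1R CRE-bla cells, IBMX present, 30 min, 37 °C, pH 7.4 buffer. Luminescence converted to cAMP via standards; non-linear fit gave EC50 and Emax.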
Background: Cyclic AMP is a second messenger, typically raised through Gs and lowered through Gi signalling.
T1 sequence (P43220 24-463): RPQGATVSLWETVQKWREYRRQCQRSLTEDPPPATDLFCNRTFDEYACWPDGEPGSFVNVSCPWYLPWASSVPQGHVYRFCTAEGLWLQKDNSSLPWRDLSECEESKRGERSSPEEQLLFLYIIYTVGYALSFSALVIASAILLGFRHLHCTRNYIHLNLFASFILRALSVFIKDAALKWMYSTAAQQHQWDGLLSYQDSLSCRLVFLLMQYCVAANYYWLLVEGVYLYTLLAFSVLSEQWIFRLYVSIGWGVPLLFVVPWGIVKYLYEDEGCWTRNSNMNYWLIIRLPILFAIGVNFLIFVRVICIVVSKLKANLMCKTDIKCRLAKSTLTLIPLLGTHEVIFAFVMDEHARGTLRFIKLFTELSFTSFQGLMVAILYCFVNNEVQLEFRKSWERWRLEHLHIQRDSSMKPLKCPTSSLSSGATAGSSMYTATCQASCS
T1 sequence (P01275 100-127 partner limits assumed): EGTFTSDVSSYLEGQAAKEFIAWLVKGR
As usually defined, the EC50 is the midpoint of the concentration-response curve. Regarding `CC(C)CCCOc1ccc(-c2cnc(-c3ccc(C[C@H](NC(=O)c4ccc(C(C)C)cc4)C(=O)N4CC(C(=O)O)C4)cc3)nc2)cc1` [Compound 1227], the EC50 fell in the range of 0.8 to 2.5 µM.
In the case of `CCc1ccc(C(=O)N[C@@H](Cc2ccc(-c3ncc(-c4ccc(OCCCC(C)C)cc4)cn3)cc2)C(=O)N2CC(C(=O)O)C2)cc1` [Compound 1228] it was 0.8 to 2.5 µM; in that of `COc1ccc(C(=O)N[C@@H](Cc2ccc(-c3ncc(-c4ccc(OCCCC(C)C)cc4)cn3)cc2)C(=O)N2CC(C(=O)O)C2)cc1` [Compound 1229], 2.5 to 5 µM; in that of `CCOc1ccc(C(=O)N[C@@H](Cc2ccc(-c3ncc(-c4ccc(OCCCC(C)C)cc4)cn3)cc2)C(=O)N2CC(C(=O)O)C2)cc1` [Compound 1230], 0.8 to 2.5 µM.
In the case of `CC(C)CCCOc1ccc(-c2cnc(-c3ccc(C[C@H](NC(=O)c4ccc(C(C)(C)C)nc4)C(=O)N4CC(C(=O)O)C4)cc3)nc2)cc1` [Compound 1231] it was 0.8 to 2.5 µM; in that of `CCCc1ccc(C(=O)N[C@@H](Cc2ccc(-c3ncc(-c4ccc(OCCCC(C)C)cc4)cn3)cc2)C(=O)N2CC(C(=O)O)C2)cc1` [Compound 1232], 0.8 to 2.5 µM.
Then `CC(C)CCCOc1ccc(-c2cnc(-c3ccc(C[C@H](NC(=O)c4ccc(C5CC5)cc4)C(=O)N4CC(C(=O)O)C4)cc3)nc2)cc1` [Compound 1233], with 0.8 to 2.5 µM.
Turning to `CC(C)CCCOc1ccc(-c2cnc(-c3ccc(C[C@H](NC(=O)c4ccc(CC(C)C)s4)C(=O)N4CC(C(=O)O)C4)cc3)nc2)cc1` [Compound 1234], the EC50 is 2.5 to 5 µM.
Then `CCCOc1ccc(C(=O)N[C@@H](Cc2ccc(-c3ncc(-c4ccc(OCCCC(C)C)cc4)cn3)cc2)C(=O)N2CC(C(=O)O)C2)cc1` [Compound 1235], with 2.5 to 5 µM; and `CC(C)CCCOc1ccc(-c2cnc(-c3ccc(C[C@H](NC(=O)c4ccc(CC(C)C)cc4)C(=O)N4CC(C(=O)O)C4)cc3)nc2)cc1` [Compound 1236], with 0.8 to 2.5 µM; and `CCC(C)(C)c1ccc(C(=O)N[C@@H](Cc2ccc(-c3ncc(-c4ccc(OCCCC(C)C)cc4)cn3)cc2)C(=O)N2CC(C(=O)O)C2)cc1` [Compound 1237], with 2.5 to 5 µM.
In the case of `CC(C)CCCOc1ccc(-c2cnc(-c3ccc(C[C@H](NC(=O)c4ccc(OC(C)C)cc4)C(=O)N4CC(C(=O)O)C4)cc3)nc2)cc1` [Compound 1238] it was 0.8 to 2.5 µM; in that of `COc1cc(C(=O)N[C@@H](Cc2ccc(-c3ncc(-c4ccc(OCCCC(C)C)cc4)cn3)cc2)C(=O)N2CC(C(=O)O)C2)ccc1C(C)(C)C` [Compound 1239], 0.8 to 2.5 µM.
Then `CCCc1ccc(C(=O)N[C@@H](Cc2ccc(-c3ncc(-c4ccc(OCCCC(C)C)cc4)cn3)cc2)C(=O)N2CC(C(=O)O)C2)s1` [Compound 1240], with 0.8 to 2.5 µM; and `CCc1ccc(C(=O)N[C@@H](Cc2ccc(-c3ncc(-c4ccc(OCCCC(C)C)cc4)cn3)cc2)C(=O)N2CC(C(=O)O)C2)s1` [Compound 1241], with 0.8 to 2.5 µM; and `CC(C)CCCOc1ccc(-c2cnc(-c3ccc(C[C@H](NC(=O)c4ccn(C(C)(C)C)c4)C(=O)N4CC(C(=O)O)C4)cc3)nc2)cc1` [Compound 1242], with 0.8 to 2.5 µM.
Consider `CCCCOc1ccc(C(=O)N[C@@H](Cc2ccc(-c3ncc(-c4ccc(OCCCC(C)C)cc4)cn3)cc2)C(=O)N2CC(C(=O)O)C2)cc1` [Compound 1243], for which the EC50 was in the range of 0.8 to 2.5 µM.
Then `CC(C)CCCOc1ccc(-c2cnc(-c3ccc(C[C@H](NC(=O)Cc4csc(C(C)(C)C)n4)C(=O)N4CC(C(=O)O)C4)cc3)nc2)cc1` [Compound 1244], with 2.5 to 5 µM; and `CCc1ccc(C(=O)N[C@@H](Cc2ccc(-c3ncc(-c4ccc(OCCCC(C)C)cc4)cn3)cc2)C(=O)N2CC(C(=O)O)C2)nc1` [Compound 1245], with 2.5 to 5 µM.
Regarding `CC(C)CCCOc1ccc(-c2cnc(-c3ccc(C[C@H](NC(=O)c4ccc(S(C)(=O)=O)s4)C(=O)N4CC(C(=O)O)C4)cc3)nc2)cc1` [Compound 1246], the EC50 was below 0.8 µM.
For the compound `C[C@@H](NC(=O)[C@H](Cc1ccc(-c2ncc(/C=C/CCCc3ccccc3)cn2)cc1)NC(=O)c1ccc(C(C)(C)C)s1)C(=O)O` [Compound 1247], the EC50 is 0.8 to 2.5 µM.
Consider `C[C@@H](NC(=O)[C@H](Cc1ccc(-c2ncc(/C=C/c3cccc(F)c3)cn2)cc1)NC(=O)c1ccc(C(C)(C)C)s1)C(=O)O` [Compound 1248], for which the EC50 was 5 to 10 µM.
As for `C[C@@H](NC(=O)[C@H](Cc1ccc(-c2ncc(/C=C/c3ccc(F)cc3)cn2)cc1)NC(=O)c1ccc(C(C)(C)C)s1)C(=O)O` [Compound 1249], the half-maximal effective concentration (EC50) fell in the range of 2.5 to 5 µM.
Consider `C[C@@H](NC(=O)[C@H](Cc1ccc(-c2ncc(/C=C/c3ccc(Cl)cc3)cn2)cc1)NC(=O)c1ccc(C(C)(C)C)s1)C(=O)O` [Compound 1250], for which the EC50 fell in the range of 0.8 to 2.5 µM.
Take `C[C@@H](NC(=O)[C@H](Cc1ccc(-c2ncc(/C=C/c3cccc(C(F)(F)F)c3)cn2)cc1)NC(=O)c1ccc(C(C)(C)C)s1)C(=O)O` [Compound 1251]: the EC50 was 5 to 10 µM.
Then `C[C@@H](NC(=O)[C@H](Cc1ccc(-c2ncc(/C=C/c3ccc(C(F)(F)F)cc3)cn2)cc1)NC(=O)c1ccc(C(C)(C)C)s1)C(=O)O` [Compound 1252], with 0.8 to 2.5 µM; and `C[C@@H](NC(=O)[C@H](Cc1ccc(-c2ncc(/C=C/CCCCc3ccccc3)cn2)cc1)NC(=O)c1ccc(C(C)(C)C)s1)C(=O)O` [Compound 1253], with below 0.8 µM.
Consider `Cc1cccc(/C=C/c2cnc(-c3ccc(C[C@H](NC(=O)c4ccc(C(C)(C)C)s4)C(=O)N[C@H](C)C(=O)O)cc3)nc2)c1` [Compound 1254], for which the 50% effective concentration (EC50) fell in the range of 0.8 to 2.5 µM.
For the compound `C[C@@H](NC(=O)[C@H](Cc1ccc(-c2ncc(/C=C/c3ccc(F)cc3F)cn2)cc1)NC(=O)c1ccc(C(C)(C)C)s1)C(=O)O` [Compound 1255], the EC50 lay in the range of 2.5 to 5 µM.
Then `C[C@@H](NC(=O)[C@H](Cc1ccc(-c2ncc(/C=C/c3cc(F)cc(F)c3)cn2)cc1)NC(=O)c1ccc(C(C)(C)C)s1)C(=O)O` [Compound 1256], with 5 to 10 µM; and `C[C@@H](NC(=O)[C@H](Cc1ccc(-c2ncc(/C=C/c3ccsc3)cn2)cc1)NC(=O)c1ccc(C(C)(C)C)s1)C(=O)O` [Compound 1257], with 2.5 to 5 µM.
Then `CCOc1ccc(/C=C/c2cnc(-c3ccc(C[C@H](NC(=O)c4ccc(C(C)(C)C)s4)C(=O)N[C@H](C)C(=O)O)cc3)nc2)cc1` [Compound 1258], with 0.8 to 2.5 µM; and `COc1cc(/C=C/c2cnc(-c3ccc(C[C@H](NC(=O)c4ccc(C(C)(C)C)s4)C(=O)N[C@H](C)C(=O)O)cc3)nc2)cc(OC)c1` [Compound 1259], with 5 to 10 µM.
On to `C[C@@H](NC(=O)[C@H](Cc1ccc(-c2ncc(/C=C/c3ccccc3C(F)(F)F)cn2)cc1)NC(=O)c1ccc(C(C)(C)C)s1)C(=O)O` [Compound 1260], for which the EC50 lay within 0.8 to 2.5 µM.
In the case of `C[C@@H](NC(=O)[C@H](Cc1ccc(-c2ncc(/C=C/c3cc(C(F)(F)F)cc(C(F)(F)F)c3)cn2)cc1)NC(=O)c1ccc(C(C)(C)C)s1)C(=O)O` [Compound 1261] it was 0.8 to 2.5 µM.
Consider `CCCCc1ccc(/C=C/c2cnc(-c3ccc(C[C@H](NC(=O)c4ccc(C(C)(C)C)s4)C(=O)N[C@H](C)C(=O)O)cc3)nc2)cc1` [Compound 1262], for which the EC50 lay within 0.8 to 2.5 µM.
Take `COc1cccc(/C=C/c2cnc(-c3ccc(C[C@H](NC(=O)c4ccc(C(C)(C)C)s4)C(=O)N[C@H](C)C(=O)O)cc3)nc2)c1` [Compound 1263]: the EC50 lay within 2.5 to 5 µM.
Then `Cc1ccc(/C=C/c2cnc(-c3ccc(C[C@H](NC(=O)c4ccc(C(C)(C)C)s4)C(=O)N[C@H](C)C(=O)O)cc3)nc2)cc1` [Compound 1264], with 0.8 to 2.5 µM; and `CCC[C@H]1CC[C@H](c2ccc(-c3cnc(-c4ccc(C[C@H](NC(=O)c5ccc(C(C)(C)C)s5)C(=O)N[C@H](C)C(=O)O)cc4)nc3)cc2)CC1` [Compound 1265], with below 0.8 µM; and `CCc1ccc(/C(C)=C/c2cnc(-c3ccc(C[C@H](NC(=O)c4ccc(C(C)(C)C)s4)C(=O)N[C@H](C)C(=O)O)cc3)nc2)cc1` [Compound 1266], with 2.5 to 5 µM.
Then `C[C@@H](NC(=O)[C@H](Cc1ccc(-c2ncc(N3CCN(CC4CCCCC4)C3=O)cn2)cc1)NC(=O)c1ccc(C(C)(C)C)s1)C(=O)O` [Compound 1267], with 5 to 10 µM; and `C[C@@H](NC(=O)[C@H](Cc1ccc(-c2ncc(N3CCN(c4ccc(C(C)(C)C)cc4)C3=O)cn2)cc1)NC(=O)c1ccc(C(C)(C)C)s1)C(=O)O` [Compound 1268], with below 0.8 µM.
As for `CC[C@H]1CC[C@H](c2ccc(-c3cnc(-c4ccc(C[C@@H](NC(=O)c5ccc(C(C)(C)C)s5)C(=O)N[C@H](C)C(=O)O)cc4)nc3)cc2)CC1` [Compound 1269], the EC50 was in the range of 5 to 10 µM.
In the case of `CC[C@H]1CC[C@H](c2ccc(-c3cnc(-c4ccc(C[C@@H](NC(=O)c5ccc(C(C)(C)C)s5)C(=O)N[C@@H](C)C(=O)O)cc4)nc3)cc2)CC1` [Compound 1270] it was 0.8 to 2.5 µM.
In the case of `CCCCCCCOc1ccc(-c2cnc(-c3ccc(C[C@@H](NC(=O)c4ccc(C(C)(C)C)s4)C(=O)N4CC(C(=O)O)C4)cc3)nc2)cc1` [Compound 1271] it was 0.8 to 2.5 µM; in that of `C[C@@H](NC(=O)[C@H](Cc1ccc(-c2ncc(OCc3ccc(C(F)(F)F)cc3)cn2)cc1)NC(=O)c1ccc(C(C)(C)C)s1)C(=O)O` [Compound 1272], 5 to 10 µM; in that of `CCCCCCOC1CN(c2cnc(-c3ccc(C[C@H](NC(=O)c4ccc(C(C)(C)C)s4)C(=O)N[C@H](C)C(=O)O)cc3)nc2)C1` [Compound 1273], 5 to 10 µM.
Turning to `CCc1ccc(CCc2cnc(-c3ccc(C[C@H](NC(=O)c4ccc(C(C)(C)C)s4)C(=O)N[C@H](C)C(=O)O)cc3)nc2)cc1` [Compound 1274], the concentration for a half-maximal effect (EC50) fell in the range of 2.5 to 5 µM.
Then `C[C@@H](NC(=O)[C@H](Cc1ccc(-c2ncc(C#Cc3ccc(F)cc3)cn2)cc1)NC(=O)c1ccc(C(C)(C)C)s1)C(=O)O` [Compound 1275], with 0.8 to 2.5 µM.
